Experiments:
Experiment in all cases: Off-target kinase panel
Format in all cases: biochemical
Details in all cases: MI891 @ 1 µM
TAK1(h) = molecular target: T1, TAK1(h) (Homo sapiens, UniProt O43318)
T1 construct: purchased Eurofins (Millipore) KinaseProfiler, inferred from the naming style
Experimental: (§1) To evaluate the selectivity of MI891, an off-target profiling study was performed using a panel of 58 kinases.

[1] = molecular target: T2, PI3 Kinase (p110a/p85a)(h) (Homo sapiens, UniProt P42336)
T2 construct: purchased Eurofins (Millipore) KinaseProfiler, inferred from the naming style
Experimental: as §1

Abl(h) = Abl(h) (Homo sapiens, UniProt P00519)
Experimental: as §1

Abl(h), sequence (P00519 whole entry): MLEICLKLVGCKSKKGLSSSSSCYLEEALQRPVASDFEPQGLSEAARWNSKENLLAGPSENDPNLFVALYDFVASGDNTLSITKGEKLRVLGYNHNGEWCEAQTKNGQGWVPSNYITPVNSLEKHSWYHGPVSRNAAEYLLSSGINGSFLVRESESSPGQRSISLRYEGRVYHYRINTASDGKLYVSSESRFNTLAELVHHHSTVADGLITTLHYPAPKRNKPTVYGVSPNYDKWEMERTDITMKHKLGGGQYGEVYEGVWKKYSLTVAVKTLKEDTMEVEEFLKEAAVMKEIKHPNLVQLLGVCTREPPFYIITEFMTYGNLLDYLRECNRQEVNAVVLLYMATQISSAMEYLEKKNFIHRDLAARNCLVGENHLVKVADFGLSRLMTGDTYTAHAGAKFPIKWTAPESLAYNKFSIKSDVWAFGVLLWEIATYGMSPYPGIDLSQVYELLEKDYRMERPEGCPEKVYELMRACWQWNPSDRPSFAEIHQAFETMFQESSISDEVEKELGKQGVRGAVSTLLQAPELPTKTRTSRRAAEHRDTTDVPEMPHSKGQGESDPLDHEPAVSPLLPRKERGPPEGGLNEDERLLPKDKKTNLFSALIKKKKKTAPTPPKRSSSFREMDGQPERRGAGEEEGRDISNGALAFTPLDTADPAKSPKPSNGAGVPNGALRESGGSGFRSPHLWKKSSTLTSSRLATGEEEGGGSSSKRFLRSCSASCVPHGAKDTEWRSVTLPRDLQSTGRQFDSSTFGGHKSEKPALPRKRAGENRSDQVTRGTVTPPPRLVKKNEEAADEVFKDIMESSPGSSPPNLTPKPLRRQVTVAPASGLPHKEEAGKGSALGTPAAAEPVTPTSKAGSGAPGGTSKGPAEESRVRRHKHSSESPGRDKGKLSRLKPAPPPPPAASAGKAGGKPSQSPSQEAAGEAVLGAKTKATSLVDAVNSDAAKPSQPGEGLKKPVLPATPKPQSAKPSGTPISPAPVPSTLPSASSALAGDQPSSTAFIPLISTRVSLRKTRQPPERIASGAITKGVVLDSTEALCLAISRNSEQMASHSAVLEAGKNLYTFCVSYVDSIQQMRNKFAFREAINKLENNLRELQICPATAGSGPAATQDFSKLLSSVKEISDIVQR
T2 sequence (P42336 whole entry): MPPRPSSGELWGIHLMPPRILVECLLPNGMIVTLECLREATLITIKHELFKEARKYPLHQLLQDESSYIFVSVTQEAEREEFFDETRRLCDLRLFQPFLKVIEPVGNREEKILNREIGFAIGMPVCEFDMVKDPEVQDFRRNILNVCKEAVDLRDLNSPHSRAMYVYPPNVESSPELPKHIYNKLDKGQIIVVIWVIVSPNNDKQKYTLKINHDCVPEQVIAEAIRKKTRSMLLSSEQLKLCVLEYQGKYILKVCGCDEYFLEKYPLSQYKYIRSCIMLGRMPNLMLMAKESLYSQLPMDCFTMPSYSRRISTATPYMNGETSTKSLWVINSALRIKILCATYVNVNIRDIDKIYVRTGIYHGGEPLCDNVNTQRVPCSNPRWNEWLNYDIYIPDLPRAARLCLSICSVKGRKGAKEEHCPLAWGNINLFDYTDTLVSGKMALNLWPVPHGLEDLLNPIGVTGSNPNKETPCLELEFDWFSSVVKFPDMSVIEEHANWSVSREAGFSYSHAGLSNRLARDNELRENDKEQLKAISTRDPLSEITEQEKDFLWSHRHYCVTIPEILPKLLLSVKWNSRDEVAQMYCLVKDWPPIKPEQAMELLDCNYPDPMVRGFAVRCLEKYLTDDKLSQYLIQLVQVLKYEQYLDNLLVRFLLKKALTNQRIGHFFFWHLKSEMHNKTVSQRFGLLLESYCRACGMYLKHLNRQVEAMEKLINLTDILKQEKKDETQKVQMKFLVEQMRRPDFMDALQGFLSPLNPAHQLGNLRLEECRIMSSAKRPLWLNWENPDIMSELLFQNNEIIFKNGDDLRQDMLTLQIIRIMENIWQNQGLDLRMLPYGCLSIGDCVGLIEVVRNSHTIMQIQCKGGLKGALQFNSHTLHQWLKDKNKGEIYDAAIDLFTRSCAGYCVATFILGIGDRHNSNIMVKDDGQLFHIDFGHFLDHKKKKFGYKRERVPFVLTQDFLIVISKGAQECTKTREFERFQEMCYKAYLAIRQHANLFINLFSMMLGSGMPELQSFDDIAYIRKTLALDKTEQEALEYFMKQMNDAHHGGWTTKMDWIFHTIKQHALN
T2 sequence (P27986 whole entry partner): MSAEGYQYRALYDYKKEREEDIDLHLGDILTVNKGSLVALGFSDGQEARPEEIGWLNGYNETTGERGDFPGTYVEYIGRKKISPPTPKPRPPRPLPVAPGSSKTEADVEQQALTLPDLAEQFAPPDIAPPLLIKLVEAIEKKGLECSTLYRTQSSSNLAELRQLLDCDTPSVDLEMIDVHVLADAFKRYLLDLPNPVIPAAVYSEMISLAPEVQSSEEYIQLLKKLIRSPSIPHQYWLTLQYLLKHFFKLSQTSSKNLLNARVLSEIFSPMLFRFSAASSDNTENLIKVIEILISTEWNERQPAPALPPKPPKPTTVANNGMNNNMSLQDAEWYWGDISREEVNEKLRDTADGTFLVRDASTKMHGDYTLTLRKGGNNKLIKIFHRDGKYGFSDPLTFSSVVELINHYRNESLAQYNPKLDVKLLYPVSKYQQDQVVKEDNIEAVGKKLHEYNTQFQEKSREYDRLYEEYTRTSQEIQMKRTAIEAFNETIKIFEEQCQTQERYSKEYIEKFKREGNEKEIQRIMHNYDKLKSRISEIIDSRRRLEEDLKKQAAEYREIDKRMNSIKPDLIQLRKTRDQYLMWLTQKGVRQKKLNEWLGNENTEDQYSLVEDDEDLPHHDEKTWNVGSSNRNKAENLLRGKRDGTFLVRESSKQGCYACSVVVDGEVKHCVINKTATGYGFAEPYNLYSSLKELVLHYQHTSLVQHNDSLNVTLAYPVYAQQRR
T1 sequence (O43318 1-303 limits assumed): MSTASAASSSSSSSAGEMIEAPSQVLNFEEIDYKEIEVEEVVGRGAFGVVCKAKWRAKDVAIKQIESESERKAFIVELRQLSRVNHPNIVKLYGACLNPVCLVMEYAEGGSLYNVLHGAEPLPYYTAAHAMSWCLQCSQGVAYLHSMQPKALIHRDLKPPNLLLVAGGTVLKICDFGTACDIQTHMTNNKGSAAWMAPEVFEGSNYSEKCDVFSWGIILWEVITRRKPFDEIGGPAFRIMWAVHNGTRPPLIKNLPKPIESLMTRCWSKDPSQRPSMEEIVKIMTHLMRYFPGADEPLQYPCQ

activity at 1 µM (TAK1(h)): 90%
activity at 1 µM [1]: 92%
activity at 1 µM (Abl(h)): 104%
SMILES: NC(=O)c1cc(Cn2cc(-c3c(-c4ccc(Cl)cc4)nc4c(F)cc(F)cn34)nn2)ccc1Cl [Compound 11, 2-Chloro-5-((4-(2-(4-chlorophenyl)-6,8-difluoroimidazo[1,2-a]pyridin-3-yl)-1H-1,2,3-triazol-1-yl)methyl)-benzamide]

Reference: PMC12305494, “Discovery of PXR Antagonist MI891 and PXR Degrader MI1013 and Their Roles in Hepatic Gene Regulation” (Journal of Medicinal Chemistry, 2025)
